Results taken from US7179779B1, “Cationic bleach activator with enhanced hydrolytic stability” (North Carolina State University, priority 2006, dated 2007).
“Also recorded” adds a separate entry of the source. Counter-ions that a name gives are not always drawn.

Legend:
[1] = Hydrolysis kinetics of bleach activator storage solutions by HPLC analysis; assay type: physicochemical; conditions: 10% solution, pH 5, room temperature
Excerpt: Because the concentration of hydroxide ion, OH^−, in the cationic bleach activator solution is almost constant by using a buffer (pH 5), the decrease in the concentration of bleach activator can be expressed as equation 1:
[formula] wherein, [C] is the concentration of bleach activator at time t and k is the pseudo first order rate constant of hydrolysis. See M. B. Smith and J. March, March's Advanced Organic Chemistry: Reactions, Mechanisms, and Structure, 5th ed. (New York: Wiley, 2001) 291.
Equation 2 then can be derived from equation 1:
[formula] wherein, C0 and Ct are the concentration of bleach activator at initial time and time t, respectively.
(§1) Aqueous solutions (10% w/w) of cationic bleach activators 3a–3e were prepared using pH 5 buffer solution. A buffer solution of pH 5 was made using sodium acetate (0.1 M)/acetic acid. Each solution was stored in an amber glass bottle at room temperature.
The HPLC (Waters Breeze HPLC system, Waters Corporation, Milford, Mass., United States of America) with a C18 reverse-phase column (Waters Symmetry C18, 5 μm) was used to analyze the hydrolysis behaviors of the cationic bleach activators 3a–3e during storage. On the selected day, a 0.5 mL aliquot was withdrawn from each storage solution of 3a–3e and diluted with 24.5 mL of water. A 10-μL sample of the solution was injected into the HPLC. For the mobile phase, the gradient program using water with 0.005M heptanesulphonic acid as a solvent A and acetonitrile as a solvent B was used (Table 2). The flow rate was 1 mL/min.

[2] = Available oxygen (AvO) of bleach activator storage solutions by modified iodometric titration; assay type: physicochemical; conditions: 10% w/w aqueous solution, pH 5 buffer, room temperature storage
Excerpt: Active or available oxygen (AvO) is a useful parameter for assessing the oxidizing power of hydrogen peroxide or peracids from bleach activators. See American Standard Test Method D 2180–89 (West Conshohocken: ASTM International, 2003); and J. K. Grime, A. D. Clauss and K. A. Leslie, Tenside Surf. Det., 29 (1992) 23. A modified iodometric titration method was used to measure the AvO of the presently disclosed bleach activators. See J. J. Lee, S. Lim, P. Hauser and D. Hinks, Color. Technol., 121 (2005) 37.
as §1
AvO of a bleach activator was measured using a previously described procedure. See J. J. Lee, S. Lim, P. Hauser and D. Hinks, Color. Technol., 121 (2005) 37, the disclosure of which is incorporated herein by reference in its entirety.
On the selected day, the pH value of each storage solution was recorded and a 2 mL aliquot was withdrawn and added to a mixture of deionized water, stabilizer (1 g/L), Na2CO3 (14 g/L) and H2O2 (50% w/w, 0.5 g/L) to make a total volume of 200 mL. Crushed ice (180 g) was added to the sample solution while stirring. Acetic acid (50 mL) and potassium iodide solution (10 mL, 10% w/v) were then added separately. Using 0.025N sodium thiosulfate solution, the sample solution was titrated until it turned colorless. AvO (ppm) of a bleach activator was calculated using Equation 3.
[formula] wherein, Vtotal and VH2O2 are the volume (mL) of Na2S2O3 solution required for the titration of sample and blank respectively.

[3] = Bleaching of cotton fabric with bleach activators, CIE whiteness index measurement; conditions: stored 10% w/w aqueous solutions, pH 5, bleaching at 70° C. for 50 min
Description: On the same day of the AvO measurement, bleaching was carried out with storage solutions of the bleach activators 3a–3e. Two grams of each solution was added to the bleaching solution, which comprised a wetting agent (1 g/L), stabilizer (1 g/L), NaOH (50% w/w, 3 g/L) and H2O2 (50% w/w, 3 g/L). Cotton fabric (10 g) was bleached in a laboratory IR dyeing machine (Ahiba Nuance, Datacolor International, Lawrenceville, N.J., United States of America) at a liquor ratio of 10:1. The temperature was raised to 70° C. at the rate of 4° C./min. After 50 min of bleaching, the bleaching bath was cooled to room temperature. The bleached fabric was rinsed thoroughly in tap water and air-dried.
The CIE Whiteness Index (WI) value was obtained for the bleached fabric using AATCC Test Method 110–1995. See AATCC Technical Manual, vol 75 (Research Triangle Park: American Association of Textile Chemists and colorists, 2000), the disclosure of which is incorporated herein by reference in its entirety.
The whiteness was measured on a UV calibrated Datacolor Spectraflash SF 600X (Datacolor Corporation, Lawrenceville, N.J., United States of America), under illuminant D65 using the 10° standard observer with specular and UV component included. Each sample was folded twice to give an opaque sample with four plies and whiteness was measured four times at different surfaces. The average value of CIE WI was recorded.

[4] = compared with conventional peroxide bleaching; cited from earlier work

melting point [°C]	hydrolytic stability under typical storage conditions [1]	rate of decrease of AvO over storage time [2]	Compound	pseudo first order rate constant of hydrolysis (ranking) [1]	also measured
194 to 196	–	–	CC[N+](CC)(CC)Cc1ccc(C(=O)N2CCCCCCC2=O)cc1 (as salt: chloride) [Compound 3d, N-[4-(triethylammoniomethyl)benzoyl] heptalactam chloride]	–	–
–	more stable than TBCC	–	CC[N+](CC)(CC)Cc1ccc(C(=O)N2CCCCCCC2=O)cc1 [Compound 3d, N-[4-(triethylammoniomethyl)benzoyl] heptalactam chloride]	smaller than that of TBCC	–

Second part, the compound before the results:

Compound	melting point [°C]	hydrolytic stability under typical storage conditions [1]	rate of decrease of AvO over storage time [2]	pseudo first order rate constant of hydrolysis (ranking) [1]	also measured
CC[N+](CC)(CC)Cc1ccc(C(=O)N2CCCC2=O)cc1 (as salt: chloride) [Compound 3a, N-[4-(triethylammoniomethyl)benzoyl] butyrolactam chloride]	228 to 230	–	–	–	–
CC[N+](CC)(CC)Cc1ccc(C(=O)N2CCCCCCCC2=O)cc1 (as salt: chloride) [Compound 3e, N-[4-(triethylammoniomethyl)benzoyl] octalactam chloride]	183 to 185	–	–	–	–
CC[N+](CC)(CC)Cc1ccc(C(=O)N2CCCC2=O)cc1 [Compound 3a, N-[4-(triethylammoniomethyl)benzoyl] butyrolactam chloride]	–	more stable than TBCC	–	smaller than that of TBCC	–
CC[N+](CC)(CC)Cc1ccc(C(=O)N2CCCCC2=O)cc1.[Cl-] [Compound 3b, N-[4-(triethylammoniomethyl)benzoyl] valerolactam chloride]	187 to 189	–	decreased the fastest	greatest	rate constant of hydrolysis, times greater than that of 3c or TBCC [1]: two times greater; change of CIE-WI of cotton fabric bleached with stored activator solutions over storage time [3]: decreased fastest
CC[N+](CC)(CC)Cc1ccc(C(=O)N2CCCCCC2=O)cc1.[Cl-] [Compound 3c, N-[4-(triethylammoniomethyl)benzoyl] caprolactam chloride]	212 to 214	–	second to that of 3b	–	bleaching performance [4]: satisfactory bleaching performance in a shorter time and at lower temperatures than conventional peroxide bleaching
CC[N+](CC)(CC)Cc1ccc(C(=O)N2CCCCCCCC2=O)cc1 [Compound 3e, N-[4-(triethylammoniomethyl)benzoyl] octalactam chloride]	–	more stable than TBCC; also recorded: the most stable compound	decreased the slowest	smaller than that of TBCC	rate constant of hydrolysis, times smaller than that of 3a [1]: about 3 times; rate constant of hydrolysis, times smaller than that of TBCC [1]: ~7 times; change of CIE-WI of cotton fabric bleached with stored activator solutions over storage time [3]: decreased slowest
